Measured values from patent US11098040B2, “Compounds and methods of use” (Ferro Therapeutics, Inc., priority 2018, dated 2021).
Read-outs that look alike come from different tables or passages of the source.

Assays:
786-O = test: Cell proliferation (Alamar Blue) assay, 786-O renal cell carcinoma, with/without ferrostatin; type: cell-based; details: Homo sapiens
Method: (§1) Cell viability assay was performed to assess the potency of the compounds in human cancer cell lines 786-O (renal cell carcinoma) and SJSA-1 (osteosarcoma). Additional cell lines, such as those described above in Example 4 as well as various others, e.g., pancreatic cancer cell lines (Panc 02.13, BxPC-3, Panc 12, Panc 02.03, Panc 6.03, PSN-1, HPAC, and Capan-1) and prostate cancer cell lines (PC-3, DU145, 22Rv1, NCI-H660, BPH1, LNCaP, BM-1604, and MDA PCa 2b), were tested for select compounds as shown in Table 25.
(§2) Cells (SJSA-1, 786-O and A431) were seeded (5000 cells/100 μL/well) in 96-well tissue culture plate and incubated at 37° C./5% CO2 for 16-24 hours. The cells were then treated with compounds (25 μL of 5×). The compound concentrations were 10-0.0005 μM prepared in 3-fold serial dilutions with final DMSO concentration of 1%. The plates were then incubated for 24 h at 37° C./5% CO2 in a moist environment. Then Alamar Blue™ reagent (final concentration 1×-12.5 μL) was added to each well and incubated for 1.5 hours at 37° C./5% CO2. The plates were read on fluorescence reader at 540 nm excitation and 590 nm emission wavelengths. The IC50 values were subsequently determined using a sigmoidal dose-response curve (variable slope) in GraphPad Prism® 5 software.
(§3) Studies have shown that lipophilic antioxidants, such as ferrostatin, can rescue cells from GPX4 inhibition-induced ferroptosis. For instance, mesenchymal state GPX4-knockout cells can survive in the presence of ferrostatin, however, when the supply of ferrostatin is terminated, these cells undergo ferroptosis (see, e.g., Viswanathan et al., Nature 547:453-7, 2017). […] Accordingly, the ability of a molecule to induce ferroptotic cancer cell death, and that such ability is admonished by the addition of ferrostatin, is clear indication that the molecule is an GPX4 inhibitor.

SJSA-1 = test: Cell proliferation (Alamar Blue) assay, SJSA-1 osteosarcoma, with/without ferrostatin; type: cell-based, human; details: Homo sapiens
Method: as §1, §2, §3

KP4 = test: Cell viability assay (CellTiter Glo), pancreatic ductal adenocarcinoma KP4; type: cell-based, human; details: pancreatic cancer cell line KP4, 96 hours, CellTiter Glo, read-out: IC50 μM KP4
Procedure, shortened: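 Luminescent ATP readout (CellTiter Glo) after 96 h compound exposure, normalized to DMSO-treated cells as maximum. Compounds ran in duplicate, nine 3-fold steps from 30 μM down to 4.6 nM, final DMSO ≤0.25%; KP4 plated overnight at 1,000–10,000 cells/well. Outputs: IC50, relative IC50 or % top inhibition.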

[1] = Whole blood stability, mouse; type: in vitro ADME
Source text: (§4) The results of the assay on stability in blood and IC50 values for pancreatic cancer cell line KP4 are given below in Table 24.

[2] = Whole blood stability, human; type: in vitro ADME
Source text: as §4

[3] = 786-0, Cell Line 786-O, read-out: IC50
[4] = SJSA-1, Cell Line SJSA-1, read-out: IC50
[5] = 786-0, 24 h, Alamar Blue, 24 h, 2 μM ferrostatin, read-out: 786-O (IC50, μM) 2 μM Ferrostatin
[6] = 786-0, 24 h, Alamar Blue, 24 h, without ferrostatin, read-out: 786-O (IC50, μM) Without Ferrostatin
[7] = SJSA-1, 24 h, Alamar Blue, 24 h, 2 μM ferrostatin, read-out: SJSA-1 (IC50, μM) 2 μM Ferrostatin
[8] = SJSA-1, 24 h, Alamar Blue, 24 h, without ferrostatin, read-out: SJSA-1 (IC50, μM) Without Ferrostatin

| Molecule | IC50 (786-O; [3]) [µM] | IC50 (SJSA-1; [4]) [µM] | also measured |
| --- | --- | --- | --- |
| C[C@H]1Cc2c([nH]c3ccccc23)[C@@H](c2ccc(C(=O)Nc3ccccn3)cc2)N1C(=O)CCl (single isomer, unassigned) [Compound 160] | 1 | 1.3 |  |
| C[C@H]1Cc2c([nH]c3ccccc23)[C@@H](c2ccc(S(=O)(=O)NC3CC3)cc2F)N1C(=O)CCl (single isomer, unassigned) [Compound 161] | 2.8 | 4.3 |  |
| C[C@H]1Cc2c([nH]c3ccccc23)[C@H](c2ccc(S(=O)(=O)NC3CC3)cc2F)N1C(=O)CCl (single isomer, unassigned) [Compound 217] | 0.022 | 0.028 |  |
| C[C@H]1Cc2c([nH]c3ccccc23)C(c2ccc(N3CCOCC3)nc2)N1C(=O)CCl (some centres unmarked) [Compound 124] | 0.245 |  |  |
| COC(=O)[C@H]1Cc2c([nH]c3ccccc23)[C@@H](c2ccc(C(=O)NC34CC5CC(CC(C5)C3)C4)cc2)N1C(=O)CCl [Compound 130, Methyl-(1R,3R)-1-(4-(((3S,5S,7S)-adamantan-1-yl)carbamoyl)phenyl)-2-(2-chloroacetyl)-2,3,4,9-tetrahydro-1H-pyrido[3,4-b]indole-3-carboxylate] | 1.8 | 2.7 |  |
| C[C@H]1Cc2c([nH]c3ccccc23)[C@@H](c2cnn(C3CCOCC3)c2)N1C(=O)CCl [Compound 159] | 4.6 |  |  |
| CCS(=O)(=O)N1CCN(c2ccc([C@H]3c4[nH]c5ccccc5c4C[C@H](C)N3C(=O)CCl)cc2)CC1 [Compound 209] | 0.022 |  | IC50 (786-O; [5]): > 10 µM; IC50 (786-O; [6]): 0.022 µM; IC50 (SJSA-1; [7]): 8.29 µM; IC50 (SJSA-1; [8]): 0.019 µM |
| C#CCOc1ccc2[nH]c3c(c2c1)C[C@H](C(=O)OC)N(C(=O)CCl)[C@H]3c1ccc(C(=O)NC23CC4CC(CC(C4)C2)C3)cc1 [Compound 211] | 0.009 |  | IC50 (786-O; [5]): 3.94 µM; IC50 (786-O; [6]): 0.009 µM; IC50 (SJSA-1; [7]): 5.92 µM; IC50 (SJSA-1; [8]): 0.011 µM |
| C[C@H]1Cc2c([nH]c3ccccc23)[C@H](c2ccc(N3CCOCC3)nc2)N1C(=O)CCl [Compound 220] | 0.098 |  |  |
| CC#CC(=O)N1[C@@H](c2ccc(N3CCOCC3)cc2)c2[nH]c3ccccc3c2C[C@@H]1C [Compound 224] |  | > 3 |  |
| C[C@H]1Cc2c([nH]c3ccccc23)[C@H](c2ccc(N3CCOCC3)cc2)N1C(=O)CF [Compound 227] |  |  | IC50 (SJSA-1; Cell Line SJSA-1, read-out: IC50): > 3 µM |
| C#CC(=O)N1[C@@H](c2ccc(N3CCOCC3)cc2)c2[nH]c3ccccc3c2C[C@@H]1C [Compound 231] | 0.27 |  |  |
| COC(=O)c1ccc([C@H]2c3[nH]c4ccc(OC)cc4c3C[C@H](C)N2C(=O)CCl)cc1 [Compound 278] | 0.22 | 0.14 |  |
| C[C@H]1Cc2c([nH]c3ccccc23)[C@H](c2ccc(N3CCN(C)CC3)cc2)N1C(=O)CCl [Example 104] |  | 0.147 |  |
| COC(=O)c1ccc([C@H]2c3[nH]c4ccccc4c3C[C@H](C(=O)OC)N2C(=O)CCl)cc1 [K601 (RSL3), reference compound] |  |  | IC50 (KP4; Homo sapiens, KP-4, 96 h): < 0.01 µM; Whole Blood Stability % Remaining at 37° C. Mouse ([1]; 0 min): 100.0%; Whole Blood Stability % Remaining at 37° C. Mouse ([1]; 30 min): 0.2%; Whole Blood Stability % Remaining at 37° C. Mouse ([1]; 60 min): 0.2%; Whole Blood Stability % Remaining at 37° C. Human ([2]; 0 min): 100.0%; Whole Blood Stability % Remaining at 37° C. Human ([2]; 30 min): 60.8%; Whole Blood Stability % Remaining at 37° C. Human ([2]; 60 min): 42.5% |
| (1S,3R)-RSL3-alkyne [Compound BX, reference compound] |  |  | IC50 (KP4): < 0.01 µM; Whole Blood Stability % Remaining at 37° C. Mouse ([1]; 0 min): 100.0%; Whole Blood Stability % Remaining at 37° C. Mouse ([1]; 30 min): 0.0%; Whole Blood Stability % Remaining at 37° C. Mouse ([1]; 60 min): 0.0%; Whole Blood Stability % Remaining at 37° C. Human ([2]; 0 min): 100.0%; Whole Blood Stability % Remaining at 37° C. Human ([2]; 30 min): 70.1%; Whole Blood Stability % Remaining at 37° C. Human ([2]; 60 min): 51.1% |

Further lines, with some results ahead:

| IC50 (786-O; [3]) [µM] | IC50 (SJSA-1; [4]) [µM] | Molecule | also measured |
| --- | --- | --- | --- |
| 0.068 |  | C[C@H]1Cc2c([nH]c3ccccc23)[C@H](c2ccc(N3CCN(C)CC3)cc2)N1C(=O)OCl [Compound 104] | IC50 (KP4; Homo sapiens, KP-4, 96 h): 0.01 to 0.1 µM |
| 2.4 |  | C[C@H]1Cc2c([nH]c3ccccc23)C(c2ccc(S(N)(=O)=O)cc2)N1C(=O)CCl (some centres unmarked) [Compound 123] |  |
| 2 | 4 | C[C@H]1Cc2c([nH]c3ccccc23)[C@@H](c2ccc(N3CCOCC3)cc2)N1C(=O)CCl [Compound 125, 2-chloro-1-((1R,3S)-3-methyl-1-(4-morpholinophenyl)-1,3,4,9-tetrahydro-2H-pyrido[3,4-b]indol-2-yl)ethan-1-one] |  |
| > 10 |  | CC1CN(c2ccc([C@@H]3c4[nH]c5ccccc5c4C[C@H](C)N3C(=O)CCl)cc2)CCO1 (some centres unmarked) [Compound 127] |  |
| > 10 | > 10 | C[C@H]1Cc2c([nH]c3ccccc23)[C@@H](c2ccc(S(=O)(=O)NC3CCNCC3)cc2)N1C(=O)CCl [Compound 133, 4-((1R,3S)-2-(2-chloroacetyl)-3-methyl-2,3,4,9-tetrahydro-1H-pyrido[3,4-b]indol-1-yl)-N-(piperidin-4-yl)benzenesulfonamide2,2,2-trifluoroacetic acid] |  |
| 0.009 | 0.015 | C#CC(=O)N1[C@@H](c2ccc(S(=O)(=O)NC3CC3)cc2F)c2[nH]c3ccc(F)cc3c2C[C@@H]1C [Compound 153, N-cyclopropyl-3-fluoro-4-((1S,3S)-6-fluoro-3-methyl-2-propioloyl-2,3,4,9-tetrahydro-1H-pyrido[3,4-b]indol-1-yl)benzenesulfonamide] |  |
| 0.591 |  | C[C@H]1Cc2c([nH]c3ccccc23)[C@H](c2cnn(C3CCOCC3)c2)N1C(=O)CCl [Compound 158] |  |
| 0.06 | 0.085 | COC[C@H]1Cc2c([nH]c3ccccc23)C(c2ccc(C(=O)NC3CC3)cc2F)N1C(=O)CCl (stereo partly drawn) [Compound 162, 4-((3R)-2-(2-chloroacetyl)-3-(methoxymethyl)-2,3,4,9-tetrahydro-1H-pyrido[3,4-b]indol-1-yl)-N-cyclopropyl-3-fluorobenzamide] |  |
| 0.162 |  | C[C@H]1Cc2c([nH]c3ccccc23)[C@H](c2ccncc2)N1C(=O)CCl [Compound 171] | IC50 (786-O; [5]): > 10 µM; IC50 (786-O; [6]): 0.162 µM; IC50 (SJSA-1; [7]): > 10 µM; IC50 (SJSA-1; [8]): 0.254 µM |
| 0.016 |  | C#CC(=O)N1[C@@H](c2ccc(S(=O)(=O)NC3CC3)cc2F)c2[nH]c3ccccc3c2C[C@@H]1C [Compound 174] | IC50 (786-O; [5]): 5.09 µM; IC50 (786-O; [6]): 0.016 µM; IC50 (SJSA-1; [7]): 2.32 µM; IC50 (SJSA-1; [8]): 0.091 µM |
| > 10 | > 10 | C=C(C(=O)N1[C@@H](c2ccc(N3CCOCC3)cc2)c2[nH]c3ccccc3c2C[C@@H]1C)C(F)(F)F [Compound 175] |  |
|  | 0.011 | CC1CN(c2ccc([C@H]3c4[nH]c5ccccc5c4C[C@H](C)N3C(=O)CCl)cc2)CC(C)O1 (some centres unmarked) [Compound 212] | IC50 (786-O; [5]): 4.96 µM; IC50 (786-O; [6]): 0.008 µM; IC50 (SJSA-1; [7]): 5.03 µM; IC50 (SJSA-1; [8]): 0.011 µM |
| 8.1 | 1.4 | C[C@H]1Cc2c([nH]c3ccccc23)[C@H](c2ccc(S(=O)(=O)NC3CCNCC3)cc2)N1C(=O)CCl [Compound 218, 4-((1S,3S)-2-(2-chloroacetyl)-3-methyl-2,3,4,9-tetrahydro-1H-pyrido[3,4-b]indol-1-yl)-N-(piperidin-4-yl)benzenesulfonamide] |  |
| 0.275 |  | Cc1ccc(S(=O)(=O)OCC(=O)N2[C@@H](c3ccc(N4CCOCC4)cc3)c3[nH]c4ccccc4c3C[C@@H]2C)cc1 [Compound 223] |  |
| 0.58 | 1 | C#CC(=O)N1[C@@H](c2ccc(C(=O)NC3CC3)cc2)c2ccc(OC)cc2C[C@@H]1C [Compound 279] |  |
|  | 0.201 | C[C@H]1Cc2c([nH]c3ccccc23)C(c2ccc(N3CCOCC3)nc2)N1C(=O)CCl (some centres unmarked) [Example 124] |  |
